In patent publication US20260325533A1, “CDK INHIBITOR COMPOUNDS” (ALEKSIA THERAPEUTICS, INC., priority 2023, published 2026):
Like-named read-outs stand apart in the source and are kept apart here.

Assays:
Type in all cases: biochemical
CDK4/CCND3 = CDK4/CCND3 (Homo sapiens, UniProt P11802); assay: CDK4 homogeneous time-resolved fluorescence (HTRF) kinase assay; settings: CDK4/CCND
Method in brief: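 IC50 values were derived from 11-point half-log dilutions, usually starting at 10 μM. Compound was first held for 20 min at 23 °C with 1.5 nM CDK4/CCND3. 1 mM ATP and 50 nM ULight-eIF4E-BP1 (Thr37/46) substrate were then added for 60 min, and the TR-FRET 665 nm signal was measured after EDTA stop and Eu-anti-phospho-4E-BP1 detection.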

CDK6/CCND1 = CDK6/CCND1 (Homo sapiens, UniProt Q00534); assay: CDK6 homogeneous time-resolved fluorescence (HTRF) kinase assay; settings: CDK6/CCND
Method in brief: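 Recombinant CDK6/CCND1 (1 nM final) was preincubated with compound for 20 min at 23 °C in HEPES buffer with MgCl2, EGTA, DTT and Tween 20. Kinase reaction then ran 60 min at 23 °C with 1 mM ATP and 50 nM ULight-4E-BP1 (Thr37/46) peptide, and was stopped with EDTA.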

CDK1/CCNB1 = CDK1/CCNB1 (Homo sapiens, UniProt P06493); assay: CDK1 homogeneous time-resolved fluorescence (HTRF) kinase assay; settings: CDK1/CCNB
Method in brief: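 Compounds, titrated 11 points in half-log steps typically from 10 μM, were incubated with enzyme for 20 min before ATP (1 mM) and ULight-labelled eIF4E-binding protein 1 peptide (50 nM) started a 60-min reaction at 23 °C. Phosphopeptide was detected by europium-antibody TR-FRET and IC50 values were derived.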

CDK2/CCNE1 = CDK2/CCNE1 (Homo sapiens, UniProt P24941); assay: CDK2 homogeneous time-resolved fluorescence (HTRF) kinase assay; settings: CDK2/CCNE
Method in brief: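 TR-FRET read-out (665 nm, or 665/615 ratio) of Eu-antibody detection of phospho-4E-BP1 (Thr37/46) ULight peptide. Enzyme 3 nM, ATP 1 mM, peptide 50 nM, 1% DMSO; 60 min reaction at 23 °C after 20 min compound preincubation. IC50 from 11-point half-log titrations, top typically 10 μM.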

[1] = x = IC50 25-250 nM, read-out: CDK6/CCND IC50 (25-250 nM)
[2] = x = IC50 <25 nM, read-out: CDK2/CCNE IC50 (<25 nM)
[3] = x = IC50 25-250 nM, read-out: CDK4/CCND IC50 (25-250 nM)
[4] = x = IC50 >250 nM, read-out: CDK6/CCND IC50 (>250 nM column)
[5] = x = IC50 25-250 nM, read-out: CDK1/CCNB IC50 (25-250 nM)
[6] = x = IC50 >250 nM, read-out: CDK4/CCND IC50 (>250 nM column)
[7] = x = IC50 >250 nM, read-out: CDK1/CCNB IC50 (>250 nM column)
[8] = x = IC50 25-250 nM, read-out: CDK2/CCNE IC50 (25-250 nM)
[9] = x = IC50 >250 nM, read-out: CDK2/CCNE IC50 (>250 nM column)

CDK6/CCND1, sequence (Q00534 whole entry): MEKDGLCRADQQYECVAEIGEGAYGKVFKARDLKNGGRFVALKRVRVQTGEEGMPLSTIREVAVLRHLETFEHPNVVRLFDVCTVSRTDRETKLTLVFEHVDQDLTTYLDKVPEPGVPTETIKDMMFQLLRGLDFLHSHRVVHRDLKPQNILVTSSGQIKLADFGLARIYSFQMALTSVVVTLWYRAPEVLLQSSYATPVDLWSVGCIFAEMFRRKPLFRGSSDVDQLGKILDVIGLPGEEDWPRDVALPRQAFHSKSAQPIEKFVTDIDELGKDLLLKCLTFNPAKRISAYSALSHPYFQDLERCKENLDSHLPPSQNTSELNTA
CDK6/CCND1, sequence (P24385 whole entry partner): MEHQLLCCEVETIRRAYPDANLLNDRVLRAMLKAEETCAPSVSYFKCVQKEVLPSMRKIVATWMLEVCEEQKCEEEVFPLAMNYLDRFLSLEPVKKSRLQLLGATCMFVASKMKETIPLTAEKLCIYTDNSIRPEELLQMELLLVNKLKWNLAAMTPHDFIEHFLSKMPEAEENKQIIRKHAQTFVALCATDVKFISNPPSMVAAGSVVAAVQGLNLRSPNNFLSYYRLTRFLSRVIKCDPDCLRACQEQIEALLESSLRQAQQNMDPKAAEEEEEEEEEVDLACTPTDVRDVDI
CDK1/CCNB1, sequence (P06493 whole entry): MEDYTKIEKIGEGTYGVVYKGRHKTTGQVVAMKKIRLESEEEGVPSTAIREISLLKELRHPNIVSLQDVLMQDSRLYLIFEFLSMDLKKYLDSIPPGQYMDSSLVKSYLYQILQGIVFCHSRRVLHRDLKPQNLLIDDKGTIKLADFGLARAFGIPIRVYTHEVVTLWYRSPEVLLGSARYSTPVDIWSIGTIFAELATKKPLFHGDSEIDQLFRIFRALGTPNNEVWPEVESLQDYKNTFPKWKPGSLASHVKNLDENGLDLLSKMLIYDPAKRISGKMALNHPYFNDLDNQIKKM
CDK1/CCNB1, sequence (P14635 whole entry partner): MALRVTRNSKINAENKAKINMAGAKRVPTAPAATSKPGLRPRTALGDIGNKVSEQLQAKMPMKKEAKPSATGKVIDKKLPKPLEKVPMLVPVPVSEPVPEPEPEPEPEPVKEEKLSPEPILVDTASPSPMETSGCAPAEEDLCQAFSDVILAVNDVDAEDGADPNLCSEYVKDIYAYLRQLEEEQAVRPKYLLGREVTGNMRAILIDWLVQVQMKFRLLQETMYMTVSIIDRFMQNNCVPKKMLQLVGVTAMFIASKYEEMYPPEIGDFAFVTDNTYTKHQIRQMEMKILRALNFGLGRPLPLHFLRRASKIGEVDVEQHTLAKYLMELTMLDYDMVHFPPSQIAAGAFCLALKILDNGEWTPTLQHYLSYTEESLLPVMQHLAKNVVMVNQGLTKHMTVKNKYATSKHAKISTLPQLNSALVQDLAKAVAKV
CDK4/CCND3, sequence (P11802 whole entry): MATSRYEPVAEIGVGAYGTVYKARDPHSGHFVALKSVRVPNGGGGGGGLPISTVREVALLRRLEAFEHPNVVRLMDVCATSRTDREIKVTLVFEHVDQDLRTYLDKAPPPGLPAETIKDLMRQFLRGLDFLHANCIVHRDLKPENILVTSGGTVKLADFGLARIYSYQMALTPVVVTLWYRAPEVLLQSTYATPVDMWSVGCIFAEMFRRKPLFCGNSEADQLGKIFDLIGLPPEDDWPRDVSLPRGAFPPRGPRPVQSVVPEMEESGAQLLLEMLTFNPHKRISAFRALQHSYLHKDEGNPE
CDK4/CCND3, sequence (P30281 whole entry partner): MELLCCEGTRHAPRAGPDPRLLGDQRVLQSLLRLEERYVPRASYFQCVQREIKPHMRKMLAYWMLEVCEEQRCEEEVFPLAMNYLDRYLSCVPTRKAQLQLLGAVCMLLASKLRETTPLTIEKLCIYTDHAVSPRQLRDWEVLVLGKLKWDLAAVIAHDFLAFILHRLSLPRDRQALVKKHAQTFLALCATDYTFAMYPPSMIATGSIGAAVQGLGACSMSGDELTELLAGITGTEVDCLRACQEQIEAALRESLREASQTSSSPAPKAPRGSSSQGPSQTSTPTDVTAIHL

| IC50 (CDK4/CCND3; x = IC50 <25 nM, read-out: CDK4/CCND IC50 (<25 nM)) | IC50 (CDK6/CCND1; [1]) | IC50 (CDK1/CCNB1; x = IC50 <25 nM, read-out: CDK1/CCNB IC50 (<25 nM)) | IC50 (CDK2/CCNE1; [2]) | IC50 (CDK4/CCND3; [3]) | IC50 (CDK6/CCND1; [4]) | IC50 (CDK1/CCNB1; [5]) | IC50 (CDK4/CCND3; [6]) | IC50 (CDK1/CCNB1; [7]) | IC50 (CDK2/CCNE1; [8]) | IC50 (CDK2/CCNE1; [9]) | SMILES |
| --- | --- | --- | --- | --- | --- | --- | --- | --- | --- | --- | --- |
| < 25 nM | 25 to 250 nM | < 25 nM | < 25 nM | – | – | – | – | – | – | – | CN1CCC(NS(=O)(=O)c2ccc(Nc3cc4c(C#Cc5ccc6c(c5)NC(=O)C6(C)C)nccc4cn3)cc2)CC1 [Example 441, 4-((5-((3,3-dimethyl-2-oxoindolin-6-yl)ethynyl)-2,6-naphthyridin-3-yl)amino)-N-(1-methylpiperidin-4-yl)benzenesulfonamide] |
| – | – | – | < 25 nM | 25 to 250 nM | > 250 nM | 25 to 250 nM | – | – | – | – | CC1(C)C(=O)Nc2cc(C#Cc3nccc4cnc(Nc5ccc(S(C)(=O)=O)cc5)cc34)c(F)cc21 [Example 446, 5-fluoro-3,3-dimethyl-6-((7-((4-(methylsulfonyl)phenyl)amino)-2,6-naphthyridin-1-yl)ethynyl)indolin-2-one] |
| – | – | – | < 25 nM | – | > 250 nM | 25 to 250 nM | > 250 nM | – | – | – | CNS(=O)(=O)c1ccc(Nc2cc3c(C#Cc4cccnc4N)nccc3cn2)c(C)c1 [Example 449, 4-((5-((2-aminopyridin-3-yl)ethynyl)-2,6-naphthyridin-3-yl)amino)-N,3-dimethylbenzenesulfonamide] |
| – | – | – | < 25 nM | – | > 250 nM | – | > 250 nM | > 250 nM | – | – | Nc1ncccc1C#Cc1nccc2cnc(Nc3ccc(S(=O)(=O)Nc4nccc(N5CCOCC5)n4)cc3)cc12 [Example 464, 4-((5-((2-aminopyridin-3-yl)ethynyl)-2,6-naphthyridin-3-yl)amino)-N-(4-morpholinopyrimidin-2-yl)benzenesulfonamide] |
| – | – | – | – | – | > 250 nM | – | > 250 nM | > 250 nM | 25 to 250 nM | – | Nc1ncccc1C#Cc1nccc2cnc(Nc3cnc(O)c(N4CCNCC4)c3)cc12 [Example 465, 5-((5-((2-aminopyridin-3-yl)ethynyl)-2,6-naphthyridin-3-yl)amino)-3-(piperazin-1-yl)pyridin-2-ol] |
| – | – | – | < 25 nM | – | > 250 nM | 25 to 250 nM | > 250 nM | – | – | – | Cc1cc(C)nc(NS(=O)(=O)c2ccc(Nc3cc4c(C#Cc5cccnc5N)nccc4cn3)cc2)n1 [Example 471, 4-((5-((2-aminopyridin-3-yl)ethynyl)-2,6-naphthyridin-3-yl)amino)-N-(4,6-dimethylpyrimidin-2-yl)benzenesulfonamide] |
| – | – | – | < 25 nM | – | > 250 nM | – | > 250 nM | > 250 nM | – | – | Cc1c(C#Cc2nccc3cnc(Nc4ccc(S(C)(=O)=O)cc4)cc23)ccc2oc(=O)[nH]c12 [Example 472, 4-Methyl-5-((7-((4-(methylsulfonyl)phenyl)amino)-2,6-naphthyridin-1-yl)ethynyl)benzo[d]oxazol-2(3H)-one] |
| – | – | – | < 25 nM | – | > 250 nM | 25 to 250 nM | > 250 nM | – | – | – | Nc1ncccc1C#Cc1nccc2cnc(Nc3ccc(S(N)(=O)=O)cc3)cc12 [Example 475, 4-((5-((2-aminopyridin-3-yl)ethynyl)-2,6-naphthyridin-3-yl)amino)benzenesulfonamide] |
| – | – | – | – | – | > 250 nM | – | > 250 nM | > 250 nM | 25 to 250 nM | – | CS(=O)(=O)c1ccc(Nc2cc3c(C#Cc4ccc5[nH]c(=O)oc5c4)nccc3cn2)cc1 [Example 476, 6-((7-((4-(methylsulfonyl)phenyl)amino)-2,6-naphthyridin-1-yl)ethynyl)benzo[d]oxazol-2(3H)-one] |
| – | 25 to 250 nM | – | < 25 nM | 25 to 250 nM | – | – | – | > 250 nM | – | – | Cc1c(-c2nccc3cnc(Nc4ccc(S(C)(=N)=O)cc4)cc23)ccc2c1cnn2CC(O)(C(F)(F)F)C(F)(F)F (stereo not drawn) [Example 482, Imino(methyl)(4-((5-(4-methyl-1-(3,3,3-trifluoro-2-hydroxy-2-(trifluoromethyl)propyl)-1H-indazol-5-yl)-2,6-naphthyridin-3-yl)amino)phenyl)-λ^6-sulfanone] |
| – | – | – | – | – | > 250 nM | – | > 250 nM | > 250 nM | 25 to 250 nM | – | CS(=O)(=O)c1ccc(Nc2cc3c(C#Cc4ccc(NC(=O)C5CC5)cc4)nccc3cn2)cc1 [Example 487, N-(4-((7-((4-(methylsulfonyl)phenyl)amino)-2,6-naphthyridin-1-yl)ethynyl)phenyl)cyclopropanecarboxamide] |
| – | 25 to 250 nM | – | < 25 nM | 25 to 250 nM | – | – | – | > 250 nM | – | – | C[C@@H](C#Cc1nccc2cnc(Nc3ccc(S(C)(=O)=O)cc3)cc12)CO [Example 488, (S)-2-methyl-4-(7-((4-(methylsulfonyl)phenyl)amino)-2,6-naphthyridin-1-yl)but-3-yn-1-ol] |
| – | – | – | – | – | > 250 nM | – | > 250 nM | > 250 nM | 25 to 250 nM | – | CS(=N)(=O)c1ccc(Nc2cc3c(C#Cc4cccnc4N)nccc3cn2)cc1 (stereo not drawn) [Example 490, (4-((5-((2-aminopyridin-3-yl)ethynyl)-2,6-naphthyridin-3-yl)amino)phenyl)(imino)(methyl)-λ^6-sulfanone] |
| – | – | – | – | – | > 250 nM | – | > 250 nM | > 250 nM | 25 to 250 nM | – | COC(=O)CCc1ccc(C#Cc2nccc3cnc(Nc4ccc(S(C)(=O)=O)cc4)cc23)cc1 [Example 493, methyl 3-(4-((7-((4-(methylsulfonyl)phenyl)amino)-2,6-naphthyridin-1-yl)ethynyl)phenyl)propanoate] |
| – | – | – | < 25 nM | – | > 250 nM | – | > 250 nM | > 250 nM | – | – | CS(=O)(=O)c1ccc(Nc2cc3c(C#Cc4ccc(CCC(=O)O)cc4)nccc3cn2)cc1 [Example 494, 3-(4-((7-((4-(methylsulfonyl)phenyl)amino)-2,6-naphthyridin-1-yl)ethynyl)phenyl)propanoic acid] |
| – | – | – | – | – | > 250 nM | – | > 250 nM | > 250 nM | 25 to 250 nM | – | CS(=O)(=O)c1ccc(Nc2cc3c(C#Cc4n[nH]c(=O)c5ccccc45)nccc3cn2)cc1 [Example 495, 4-((7-((4-(methylsulfonyl)phenyl)amino)-2,6-naphthyridin-1-yl)ethynyl) phthalazin-1(2H)-one] |
| – | – | – | < 25 nM | – | > 250 nM | – | > 250 nM | > 250 nM | – | – | CS(=O)(=O)c1ccc(Nc2cc3c(C#Cc4n[nH]c5cnccc45)nccc3cn2)cc1 [Example 496, 5-((1H-pyrazolo[3,4-c]pyridin-3-yl)ethynyl)-N-(4-(methylsulfonyl)phenyl)-2,6-naphthyridin-3-amine] |
| – | – | – | < 25 nM | – | > 250 nM | – | > 250 nM | > 250 nM | – | – | CS(=O)(=O)c1ccc(Nc2cc3c(C#Cc4c(N)ncnc4Cl)nccc3cn2)cc1 [Example 510, 5-((4-amino-6-chloropyrimidin-5-yl)ethynyl)-N-(4-(methylsulfonyl)phenyl)-2,6-naphthyridin-3-amine] |
| – | – | – | – | – | > 250 nM | – | > 250 nM | > 250 nM | – | > 250 nM | COc1cnc(C#Cc2nccc3cnc(Nc4ccc(S(C)(=O)=O)cc4)cc23)nc1 [Example 513, 5-((5-methoxypyrimidin-2-yl)ethynyl)-N-(4-(methylsulfonyl)phenyl)-2,6-naphthyridin-3-amine] |
| – | – | – | – | – | > 250 nM | – | > 250 nM | > 250 nM | 25 to 250 nM | – | CS(=O)(=O)c1ccc(Nc2cc3c(C#Cc4ccc5c(c4)OCC(=O)N5)nccc3cn2)cc1 [Example 519, 7-((7-((4-(methylsulfonyl)phenyl)amino)-2,6-naphthyridin-1-yl)ethynyl)-2H-benzo[b][1,4]oxazin-3(4H)-one] |
| – | – | – | – | – | > 250 nM | – | > 250 nM | > 250 nM | – | > 250 nM | CS(=O)(=O)c1ccc(Nc2cc3c(C#Cc4ccc(C(F)F)nc4)nccc3cn2)cc1 [Example 524, 5-((6-(difluoromethyl)pyridin-3-yl)ethynyl)-N-(4-(methylsulfonyl)phenyl)-2,6-naphthyridin-3-amine] |
